Like-named read-outs stand apart in the source and are kept apart here.
Tests used:
[1] = target: T1, Full-length (FL)-PRMT5-MEP50 enzyme complex (Homo sapiens, UniProt O14744); assay: PRMT5-MEP50 Enzyme Methylation Assay (Version B); format: biochemical
T1 construct: Full-length (FL)-PRMT5-MEP50 enzyme complex (recombinant proteins from baculovirus-transfected Sf21 cells: FL-PRMT5; MW=73837 kDa and FL-MEP50; MW=38614); made in house; host or cells: baculovirus-transfected Sf21 cells
Protocol: PRMT5-MEP50 Enzyme Methylation Assay (Version B)
PRMT5/MEP50 biochemical assay is a direct measurement of the methylation activity of the enzyme complex on a short peptide substrate derived from the N-terminus of H4 histone. Methylation experiment was performed with recombinant protein. The assessment of inhibitory effect (IC50) of small molecules was measured by the effectiveness of the compounds to inhibit this reaction.
In this assay, the potency (IC50) of each compound was determined from a twenty-point (1:2 serial dilution; top compound concentration of 100000 nM) titration curve using the following outlined procedure. To each well of a white ProxiPlus 384 well-plate, 100 nL of compound (1% DMSO in final assay volume of 10 μL) was dispensed, followed by the addition of 8 μL of 1× assay buffer (50 mM Bicine pH 8.0, 1 mM DTT, 0.004% Tween20, 0.01% BSA) containing 0.5 nM of Full-length (FL)-PRMT5-MEP50 enzyme complex (recombinant proteins from baculovirus-transfected Sf21 cells: FL-PRMT5; MW=[…] and FL-MEP50; MW=38614). Plates were sealed and placed in a 37° C. humidified chamber for 30 minutes pre-incubation with compounds. Subsequently, each reaction was initiated by the addition of 2 μL 1× assay buffer containing 75 nM biotinylated H4R3 (Me1) peptide, and 15 μM S-(5′-Adenosyl)-L-Methionine Chloride (SAM). The final reaction in each well of 10 μL consists of 0.5 nM PRMT5-MEP50, 75 nM biotinylated-peptide, and 15 μM SAM. Methylation reactions were allowed to proceed for 150 minutes in a sealed plate at 37° C. Reactions were immediately quenched by the addition of 1 μL of 10% formic acid. Plates were then frozen and shipped to SAMDI™ Tech Inc. to determine the percent conversion from […]. EC50 values were determined by non-linear regression according to models for either sigmoidal (4 parameters) or biphasic (7 parameters) dose-response curves.

[2] = system: symmetric dimethylation of arginine (SDMA) of PRMT5 substrates in MCF-7 cells; assay: PRMT5 Cell Target Engagement (TE) Assay; format: cell-based; details: 3 days treatment, SDMA high content imaging
In short: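 MCF-7 cells treated 3 days at 37 °C with a ten-point 1:3 titration from 10000 nM. Fixed cells immunostained with anti-SDMA and Alexa488 secondary; nuclear fluorescence quantified by high-content imaging versus DMSO wells, with IC50 from a 4-parameter fit.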

[3] = second value of 7 parameter biphasic fit, read-out: Enzyme Methylation Assay Version B (EC50 2)
[4] = single EC50 = 4 parameter single site sigmoidal fit, EC50 1 = first value of 7 parameter biphasic fit, read-out: Enzyme Methylation Assay Version B (EC50 or EC50 1)

T1 sequence (O14744 whole entry): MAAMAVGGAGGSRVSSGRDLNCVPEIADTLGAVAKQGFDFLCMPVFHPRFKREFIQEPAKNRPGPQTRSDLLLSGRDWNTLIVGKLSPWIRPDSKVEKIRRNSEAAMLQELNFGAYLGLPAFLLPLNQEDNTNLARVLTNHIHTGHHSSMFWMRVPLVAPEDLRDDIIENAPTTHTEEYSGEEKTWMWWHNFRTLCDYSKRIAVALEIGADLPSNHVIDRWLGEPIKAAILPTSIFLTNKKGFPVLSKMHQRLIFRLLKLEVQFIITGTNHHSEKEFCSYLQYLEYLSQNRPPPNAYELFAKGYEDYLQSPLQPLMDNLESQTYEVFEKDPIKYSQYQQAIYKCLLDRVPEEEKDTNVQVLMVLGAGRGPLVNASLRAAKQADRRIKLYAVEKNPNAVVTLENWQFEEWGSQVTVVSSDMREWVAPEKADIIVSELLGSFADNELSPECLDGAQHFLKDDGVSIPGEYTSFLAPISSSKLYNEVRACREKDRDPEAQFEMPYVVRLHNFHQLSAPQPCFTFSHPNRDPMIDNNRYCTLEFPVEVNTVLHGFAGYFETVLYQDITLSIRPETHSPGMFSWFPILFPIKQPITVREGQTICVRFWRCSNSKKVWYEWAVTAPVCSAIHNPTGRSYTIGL
T1 sequence (Q9BQA1 whole entry partner): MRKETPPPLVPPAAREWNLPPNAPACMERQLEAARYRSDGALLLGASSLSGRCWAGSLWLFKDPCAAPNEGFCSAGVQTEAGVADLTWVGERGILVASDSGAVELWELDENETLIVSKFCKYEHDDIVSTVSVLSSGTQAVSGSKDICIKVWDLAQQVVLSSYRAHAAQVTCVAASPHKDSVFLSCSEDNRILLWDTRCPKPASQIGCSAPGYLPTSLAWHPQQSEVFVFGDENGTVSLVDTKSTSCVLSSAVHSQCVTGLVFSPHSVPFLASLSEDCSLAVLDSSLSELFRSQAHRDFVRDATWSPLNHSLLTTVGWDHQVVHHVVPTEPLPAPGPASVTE

Row | Compound | EC50 [1, 3] [nM] | EC50 [1, 4] [nM] | EC50 ([2]; Homo sapiens, MCF7, 72 h) [nM] | EC50 [2] [nM]
1 | O=C(c1ccc(-c2ncnn2C2CC2)cc1Cl)N1CC[C@]2(Cc3ccccc3CN2)[C@H](O)C1 [Example 110, (2-chloro-4-(1-cyclopropyl-1H-1,2,4-triazol-5-yl)phenyl)((3R,3′R)-3′-hydroxy-1,4-dihydro-2H-spiro[isoquinoline-3,4′-piperidin]-1′-yl)methanone] | 8710 | 3.31 | 53 | –
2 | CCOc1cc(C(=O)N2C3CCC2COC3)ccc1C(=O)N1CCC2(Cc3ccccc3CN2)C(O)C1 (single isomer, unassigned) [Example 86, A diastereomer of {3-ethoxy-4-[(3′-hydroxy-1,4-dihydro-1′H,2H-spiro[isoquinoline-3,4′-piperidin]-1′-yl)carbonyl]phenyl}(3-oxa-8-azabicyclo[3.2.1]oct-8-yl)methanone] | 28800 | 82.2 | – | 1470
3 | CC(=O)N1CCC(Nc2cc(C(=O)N3CCC4(Cc5ccccc5CN4)C(O)C3)ncn2)CC1 (single isomer, unassigned) [Example 92, A diastereomer of 1-[4-({6-[(3′-hydroxy-1,4-dihydro-1′H,2H-spiro[isoquinoline-3,4′-piperidin]-1′-yl)carbonyl]-4-pyrimidinyl}amino)-1-piperidinyl]ethanone] | – | 944 | – | ≥ 10000
4 | O=C(c1ccc(-c2nnc(C3CC3)o2)cc1)N1CCC2(CC1)Cc1ccccc1CN2 [Example 118, [4-(5-cyclopropyl-1,3,4-oxadiazol-2-yl)phenyl](1,4-dihydro-1′H,2H-spiro[isoquinoline-3,4′-piperidin]-1′-yl)methanone] | ≥ 100000 | 510 | ≥ 10000 | –
5 | CC(=O)N1CCC(Nc2cc(C(=O)N3CCC4(Cc5ccccc5CN4)C(O)C3)ncn2)CC1 (single isomer, unassigned) [Example 90, A diastereomer of 1-[4-({6-[(3′-hydroxy-1,4-dihydro-1′H,2H-spiro[isoquinoline-3,4′-piperidin]-1′-yl)carbonyl]-4-pyrimidinyl}amino)-1-piperidinyl]ethanone] | – | 206 | – | ≥ 10000
6 | CC(=O)N1CCC(Nc2cc(C(=O)N3CC[C@]4(Cc5ccccc5CN4)[C@H](O)C3)ccn2)C(F)(F)C1 (single isomer, unassigned) [Example 97, 1—((S or R)-3,3-difluoro-4-((4-((3R,3′R)-3′-hydroxy-1,4-dihydro-2H-spiro[isoquinoline-3,4′-piperidine]-1′-carbonyl)pyridin-2-yl)amino)piperidin-1-yl)ethan-1-one] | 7410 | 4.54 | – | 216
7 | CCOc1cc(C(=O)N2C3CCC2COC3)ccc1C(=O)N1CCC2(Cc3ccccc3CN2)C(O)C1 (single isomer, unassigned) [Example 89, A diastereomer of {3-ethoxy-4-[(3′-hydroxy-1,4-dihydro-1′H,2H-spiro[isoquinoline-3,4′-piperidin]-1′-yl)carbonyl]phenyl}(3-oxa-8-azabicyclo[3.2.1]oct-8-yl)methanone] | 1980 | 4.81 | – | 6.88
8 | O=C(c1ccc(C(=O)N2C3CCC2COC3)cc1)N1CCC2(CC1)Cc1ccccc1CN2 [Example 173, (4-(3-oxa-8-azabicyclo[3.2.1]octane-8-carbonyl)phenyl)(1,4-dihydro-2H-spiro[isoquinoline-3,4′-piperidin]-1′-yl)methanone] | 14400 | 32.3 | 5310 | –
9 | Cn1ncnc1-c1ccc(C(=O)N2CCC3(CC2)Cc2ccccc2CN3)cc1 [Example 117, (1,4-dihydro-1′H,2H-spiro[isoquinoline-3,4′-piperidin]-1′-yl)[4-(1-methyl-1H-1,2,4-triazol-5-yl)phenyl]methanone] | ≥ 100000 | 690 | ≥ 10000 | –
10 | O=C(c1ccc(C(=O)N2C3CCC2COC3)cc1)N1CCC2(Cc3ccccc3CN2)C(O)C1 (single isomer, unassigned) [Example 150, (3′-hydroxy-1,4-dihydro-1′H,2H-spiro[isoquinoline-3,4′-piperidin]-1′-yl)[4-(3-oxa-8-azabicyclo[3.2.1]oct-8-ylcarbonyl)phenyl]methanone] | 1840 | 5.61 | – | 246
11 | O=C(c1ccc(C(=O)N2C3CCC2COC3)cc1)N1CCC2(Cc3ccccc3CN2)C(O)C1 (single isomer, unassigned) [Example 149, (3′-hydroxy-1,4-dihydro-1′H,2H-spiro[isoquinoline-3,4′-piperidin]-1′ -yl)[4-(3-oxa-8-azabicyclo[3.2.1]oct-8-ylcarbonyl)phenyl]methanone] | ≥ 100000 | 298 | – | 9840
12 | O=C(c1ccc(C(=O)N2C3CCC2COC3)cc1)N1CCC2(Cc3ccccc3CN2)C(O)C1 (single isomer, unassigned) [Example 151, (3′-hydroxy-1,4-dihydro-1′H,2H-spiro[isoquinoline-3,4′-piperidin]-1′-yl)[4-(3-oxa-8-azabicyclo[3.2.1]oct-8-ylcarbonyl)phenyl]methanone] | – | 882 | – | 4180
13 | CCOc1cc(C(=O)N2C3CCC2COC3)ccc1C(=O)N1CCC2(CC1)Cc1ccc(Cl)cc1CN2 [Example 52, [4-(7-chloro-1,4-dihydro-1H,2H-spiro[isoquinoline-3,4′-piperidine]-1′-carbonyl)-3-ethoxyphenyl](3-oxa-8-azabicyclo[3.2.l]octan-8-yl)methanone] | 2250 | 6.71 | 87.7 | –
14 | CC(=O)N1CCC(Nc2cc(C(=O)N3CC[C@]4(Cc5ccccc5CN4)[C@H](O)C3)c(Cl)cn2)CC1 [Example 4, 11-(4-((5-chloro-4-((3R,3’R)-3′-hydroxy-1,4-dihydro-2H-spiro[isoquinoline-3,4′-piperidine]-1′-carbonyl)pyridin-2-yl)amino)piperidin-1-yl)ethan-1-one] | 1530 | 2.63 | 55.9 | –
15 | CC(=O)N1CCC(Nc2cc(C(=O)N3CCC4(Cc5ccccc5CN4)C(O)C3)ncn2)CC1 (single isomer, unassigned) [Example 91, A diastereomer of 1-[4-({6-[(3′-hydroxy-1,4-dihydro-1′H,2H-spiro[isoquinoline-3,4′-piperidin]-1′-yl)carbonyl]-4-pyrimidinyl}amino)-1-piperidinyl]ethanone] | 513 | 1.65 | – | 305
16 | O=C(c1ccc(C(F)(F)F)nc1Cl)N1CCC2(CC1)Cc1ccccc1CN2 [Example 116, [2-chloro-6-(trifluoromethyl)pyridin-3-yl](1,4-dihydro-1′H,2H-spiro[isoquinoline-3,4′-piperidin]-1′-yl)methanone] | ≥ 100000 | 807 | ≥ 10000 | –
17 | [2H]C1([2H])NC2(CCN(C(=O)c3ccc(C(=O)N4C5CCC4COC5)cc3OCC)CC2)Cc2ccccc21 [Example 175, (4-(3-oxa-8-azabicyclo[3.2.1]octane-8-carbonyl)-2-ethoxyphenyl)(1,4-dihydro-2H-spiro[isoquinoline-3,4′-piperidin]-1′-yl-1,1-d2)methanone] | 2490 | 6.32 | 156 | –
18 | CCOc1cc(C(=O)N2C3CCC2COC3)ccc1C(=O)N1CCC2(Cc3ccccc3CN2)C(O)C1 (single isomer, unassigned) [Example 88, A diastereomer of {3-ethoxy-4-[(3′-hydroxy-1,4-dihydro-1′H,2H-spiro[isoquinoline-3,4′-piperidin]-1′-yl)carbonyl]phenyl}(3-oxa-8-azabicyclo[3.2.1]oct-8-yl)methanone] | – | 964 | 4290 | –
19 | CCOc1nc(Cl)ccc1C(=O)N1CCC2(CC1)Cc1ccccc1CN2 [Example 114, (6-chloro-2-ethoxypyridin-3-yl)(1,4-dihydro-1′H,2H-spiro[isoquinoline-3,4′-piperidin]-1′-yl)methanone] | 15000 | 15.1 | 7550 | –
